“And” between values parts separate entries of the source, which are not always exact repeats. Equal values may be shown once. Where a name gives a salt, the structure may show the parent alone.

7 compounds from patent publication US7956059B2, “Aliphatic amide and ester pyrazinoylguanidine sodium channel blockers” (Parion Sciences, Inc., priority 2004, dated 2011) can be followed below.

`N=C(NCCCCCCCCCCCC(=O)O)NC(=O)c1nc(Cl)c(N)nc1N` [ALB 26799, 12-[N′-(3,5-diamino-6-chloropyrazine-2-carbonyl)guanidino]-dodecanoic acid]: the melting point (commonly the temperature, or range, at which the solid turns liquid) was 194 to 196 °C and 192 to 194 °C. In the case of `N=C(NCCCCCCCCCCCC(=O)N1CCNCC1)NC(=O)c1nc(Cl)c(N)nc1N` (as salt: hydrochloride) [ALB 27069, N-(3,5-Diamino-6-chloropyrazine-2-carbonyl)-N′-(12-oxo-12-piperazin-1-yl-dodecyl)guanidine dihydrochloride] it was 148 to 150 °C; in that of `CN(C)CCCNC(=O)CCCCCCCCCCCNC(N)=NC(=O)c1nc(Cl)c(N)nc1N` [ALB 26982, 12-[N′-(3,5-Diamino-6-chloropyrazine-2-carbonyl)guanidino]dodecanoic acid (3-dimethylaminopropyl)amide], 82 to 84 °C; in that of `N=C(N)N(CCCCCCCCCCC(=O)O)C(=O)c1nc(Cl)c(N)nc1N` [ALB 26795, 11-[N-(3,5-Diamino-6-chloropyrazine-2-carbonyl)guanidino]undecanoic acid], 181 to 191 °C.

For the compound `NC(=NC(=O)c1nc(Cl)c(N)nc1N)NCCCCCCCCCCCC(=O)Nc1ncc[nH]1` [ALB 27070, 12-[N′-(3,5-Diamino-6-chloropyrazine-2-carbonyl)guanidino]dodecanoic acid (1H-imidazol-2-yl)amide], the melting point lay in the range of 102 to 104 °C. The same measure for `CN(C)CCCNC(=O)CCCCCCCCCCN(C(=N)N)C(=O)c1nc(Cl)c(N)nc1N` (as salt: salt) [ALB 27160, 11-[N-(3,5-Diamino-6-chloropyrazine-2-carbonyl)guanidino]undecanoic acid (3-dimethylaminopropyl)amide]: 52 to 56 °C; for `N=C(N)N(CCCCCCCCCCC(N)=O)C(=O)c1nc(Cl)c(N)nc1N` [ALB 27317, 11-[N-(3,5-Diamino-6-chloropyrazine-2-carbonyl)guanidino]undecanoic acid amide]: 69 to 72 °C.
